Experiments:
[1] = tested on: human prostate cancer cells (PC3); test: Assessment of cytotoxicity by SRB assay, PC3; format: cell-based; conditions: androgen-independent metastatic human prostate cancer cells (PC3), 72 h, 0.01 μM to 100 μM
Protocol: (§1) The human prostate cancer cells (PC3) and human osteosarcoma cells (MG-63) were obtained from Nawah Scientific Inc. (Mokatam, Cairo, Egypt) and cultured in DMEM (Dulbecco's modified eagle's medium), Gibco, USA, supplemented with fetal bovine serum (FBS) at a concentration of 10% and 100 U/mL of penicillin and streptomycin (PS). The Cells were incubated at 37° C. in a humidified environment that contained 5% CO2.
(§2) Cells were seeded in 96-well plates as aliquots of 100 μL cell suspension and incubated in a complete media for 24 h. afterward, cells were treated with N′-(1-naphthoyloxy)-2-(benzo[d]thiazol-2-yl)acetimidamide at diverse concentrations ranging from 0.01 μM to 100 μM for 72 h. Then, cells were fixed at 4° C. for one hour with 150 μL of 10% trichloroacetic acid (TCA). After washing the cells five times with distilled water, 70 μL of sulforhodamine (SRB) solution (0.4% w/v) was added and incubated for 10 min at room temperature in a dark place. […] Then, 150 μL of Tris pH 10.5 (10 mM) was added, and the absorbance was measured at 540 nm using a BMG LABTECH®-FLUOstar Omega microplate reader (Ortenberg, Germany). Half maximal inhibitory concentrations (IC50) values were calculated for each experiment using GraphPad Prism 6 software. […]
(§3) The inhibition was calculated using the following equation: Inhibition %=100−Average Viability

Bovine Serum Albumin = Bovine Serum Albumin (Bos taurus, UniProt P02769); test: Bovine Serum Albumin Assay (BSA), inhibition of protein denaturation; format: biochemical; conditions: BSA 0.4% w/v, pH 6.4, 72° C. for 10 minutes, 20-100 μg/mL, turbidity at 660 nm
Protocol: In vitro-inflammatory activities of the tested samples were determined using a modified method of the BSA assay reported by Williams et al. BSA solution (0.4%, w/v) was prepared in Tris Buffered Saline. The pH was adjusted to 6.4 with glacial acetic acid. Different dilutions of 20, 40, 60, 80, and 100 μg/mL of the stock solutions were added to test tubes containing 1 mL of 0.4%, w/v BSA buffer solution. Both negative (solvent) and positive (aspirin) controls were assayed in a similar manner. The solutions were then heated in a water bath at 72° C. for 10 minutes and cooled for 20 minutes under laboratory conditions. The turbidity of the solutions (level of protein precipitation) was measured at 660 nm in Spectrophotometer (V-770 UV-Visible/NIR Spectrophotometer).
The percentage inhibition of precipitation (protein denaturation) was determined relative to the negative control using the following equation:
[formula] % Anti-Denaturation Activity=% Inhibition of Protein Denaturation=% Anti-inflammatory Activity

[2] = tested on: human osteosarcoma cells (MG-63); test: Assessment of cytotoxicity by SRB assay, MG-63; format: cell-based; conditions: osteosarcoma (MG-63) cells, 72 h, 0.01 μM to 100 μM
Protocol: as §1, §2, §3

Sequence of Bovine Serum Albumin (P02769 25-607): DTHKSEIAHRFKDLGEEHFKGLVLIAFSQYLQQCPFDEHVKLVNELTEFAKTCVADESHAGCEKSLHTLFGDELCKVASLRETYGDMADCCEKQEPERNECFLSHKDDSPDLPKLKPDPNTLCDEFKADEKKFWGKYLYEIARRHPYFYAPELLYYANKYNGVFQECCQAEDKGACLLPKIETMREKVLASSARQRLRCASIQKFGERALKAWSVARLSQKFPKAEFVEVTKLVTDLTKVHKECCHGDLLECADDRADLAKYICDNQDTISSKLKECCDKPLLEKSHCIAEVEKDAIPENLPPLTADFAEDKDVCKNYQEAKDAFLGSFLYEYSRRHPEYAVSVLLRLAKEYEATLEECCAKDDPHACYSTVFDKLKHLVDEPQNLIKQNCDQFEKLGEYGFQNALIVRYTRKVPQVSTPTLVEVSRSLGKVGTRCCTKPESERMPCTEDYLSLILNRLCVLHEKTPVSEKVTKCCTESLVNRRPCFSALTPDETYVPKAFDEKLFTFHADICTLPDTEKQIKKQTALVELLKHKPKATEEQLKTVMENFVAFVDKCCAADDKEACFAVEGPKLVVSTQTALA

- melting point: 251 to 253 °C
- in vitro anti-inflammatory activity (inhibition of protein denaturation) (Bovine Serum Albumin): considerable anti-inflammatory effect
SMILES: O=C(O)c1cn(C2CC2)c2cc(N3CCN(Cn4nc(/N=C/c5cccc(Br)c5)sc4=S)CC3)c(F)cc2c1=O [7-(4-((5-(3-bromobenzylideneamino)-2-thioxo-1,3,4-thiadiazol-3(2H)-yl)methyl)piperazin-1-yl)-1-cyclopropyl-6-fluoro-4-oxo-1,4-dihydroquinoline-3-carboxylic acid]
- antiproliferative activity against PC3 cells [1]: excellent antiproliferative activities
- antiproliferative activity against MG-63 cells [2]: excellent antiproliferative activities
